{"source": "patent US20220362249A1", "about": "“METHODS FOR TREATING […]” (PTC Therapeutics MP, Inc., priority 2019, published 2022)", "assay_type_in_all_cases": "in vivo, human", "key": {"[1]": {"experiment": "Comparison of adverse events in fed and fasted subjects", "settings": "single dose 10 mg/kg, twelve subjects", "description": "Method: Twelve subjects were given a single dose (10 mg/kg) of sepiapterin under fasting conditions and then 7 days later under fed conditions. Standard definitions of adverse events (AE) were used. All-cause AE were those that occurred at any time; treatment-emergent adverse events (TEAE) were those that occurred at or after the time of administration of study treatment. TEAEs related to study drug were based on the opinion of the investigator. Serious AE were defined as life threatening or caused death, hospitalization or prolongation of existing hospitalization, or were a persistent or significant disability/incapacity or a substantial disruption of the ability to conduct normal life functions, or a congenital anomaly/birth defect."}, "[2]": {"experiment": "Food effect on administration of sepiapterin: plasma sepiapterin and BH4 concentrations, fasted vs fed", "settings": "sepiapterin 10 mg/kg oral; for concentration at 0 h / concentration at 0.5 h / concentration at 1 h / concentration at 2 h / concentration at 4 h / concentration at 8 h / concentration at 12 h / concentration at 24 h: human, oral, 10 mg/kg; for concentration at 0 h: 0 h (predose)", "description": "Method: Subjects received 2 oral doses of sepiapterin (10 mg/kg) separated by 1 week in a fasted and fed state. Subjects were fed a standard high-fat (approximately 50 percent of total caloric content of the meal) and high-calorie (approximately 800 to 1000 calories) meal starting 30 minutes prior to receiving their second oral dose of sepiapterin on Day 8.\nSampling for PK analysis occurred predose on Days 1 and 8 (within 30 minutes before dosing) and 0.5 hr, 1 hr, 2 hr, 4 hr, 8 hr, 12 hr, and 24 hr after the doses on Days 1 and 8. The blood concentrations of sepiapterin and BH4 were analyzed by MNG Labs."}, "[3]": {"experiment": "Pharmacokinetic analysis of multiple doses of sepiapterin (once daily for 7 days, fed subjects)", "description": "Methods: Three cohorts of eight fed subjects each were randomized to receive once-daily sepiapterin or placebo for 7 days in a 6:2 ratio. A sentinel dose strategy was also used for administration of the highest sepiapterin dose."}, "[4]": {"settings": "plasma, fasted, read-out: Concentration in Plasma, Maximum"}, "[5]": {"settings": "plasma, fasted, read-out: Concentration in Plasma, Mean"}, "[6]": {"settings": "plasma, fasted, read-out: Concentration in Plasma, Median"}, "[7]": {"settings": "plasma, fasted, read-out: Concentration in Plasma, Minimum"}, "[8]": {"settings": "plasma, fed (high-fat meal), read-out: Concentration in Plasma, Maximum"}, "[9]": {"settings": "plasma, fed (high-fat meal), read-out: Concentration in Plasma, Mean"}, "[10]": {"settings": "plasma, fed (high-fat meal), read-out: Concentration in Plasma, Median"}, "[11]": {"settings": "plasma, fed (high-fat meal), read-out: Concentration in Plasma, Minimum"}}, "note": "Like-named read-outs stand apart in the source and are kept apart here.", "data": [{"smiles": "C[C@H](O)C(=O)C1=Nc2c(nc(N)[nH]c2=O)NC1", "note": "[sepiapterin, Sepiapterin]", "values": [{"measurement": "TEAE", "setting": "[1]; Fasted", "result": 4}, {"measurement": "TEAE related to study drug", "setting": "[1]; Fasted", "result": 1}, {"measurement": "≥1 AE", "setting": "[1]; Fasted", "result": 5}, {"measurement": "TEAE", "setting": "[1]; Fed", "result": 1}, {"measurement": "TEAE related to study drug", "setting": "[1]; Fed", "result": 0}, {"measurement": "≥1 AE", "setting": "[1]; Fed", "result": 1}, {"measurement": "concentration at 0 h", "setting": "[2]; [4]", "result": 0, "unit": "nM"}, {"measurement": "concentration at 0 h", "setting": "[2]; [5]", "result": 0, "unit": "nM"}, {"measurement": "concentration at 0 h", "setting": "[2]; [6]", "result": 0, "unit": "nM"}, {"measurement": "concentration at 0 h", "setting": "[2]; [7]", "result": 0, "unit": "nM"}, {"measurement": "concentration at 0.5 h", "setting": "[2]; [4]", "result": 7.23, "unit": "nM"}, {"measurement": "concentration at 0.5 h", "setting": "[2]; [5]", "result": 2.85, "unit": "nM"}, {"measurement": "concentration at 0.5 h", "setting": "[2]; [6]", "result": 2.32, "unit": "nM"}, {"measurement": "concentration at 0.5 h", "setting": "[2]; [7]", "result": 0, "unit": "nM"}, {"measurement": "concentration at 1 h", "setting": "[2]; [4]", "result": 10.2, "unit": "nM"}, {"measurement": "concentration at 1 h", "setting": "[2]; [5]", "result": 5.43, "unit": "nM"}, {"measurement": "concentration at 1 h", "setting": "[2]; [6]", "result": 4.82, "unit": "nM"}, {"measurement": "concentration at 1 h", "setting": "[2]; [7]", "result": 3.15, "unit": "nM"}, {"measurement": "concentration at 2 h", "setting": "[2]; [4]", "result": 6.65, "unit": "nM"}, {"measurement": "concentration at 2 h", "setting": "[2]; [5]", "result": 4.63, "unit": "nM"}, {"measurement": "concentration at 2 h", "setting": "[2]; [6]", "result": 4.71, "unit": "nM"}, {"measurement": "concentration at 2 h", "setting": "[2]; [7]", "result": 2.52, "unit": "nM"}, {"measurement": "concentration at 4 h", "setting": "[2]; [4]", "result": 3.93, "unit": "nM"}, {"measurement": "concentration at 4 h", "setting": "[2]; [5]", "result": 1.88, "unit": "nM"}, {"measurement": "concentration at 4 h", "setting": "[2]; [6]", "result": 2.37, "unit": "nM"}, {"measurement": "concentration at 4 h", "setting": "[2]; [7]", "result": 0, "unit": "nM"}, {"measurement": "concentration at 8 h", "setting": "[2]; [4]", "result": 0, "unit": "nM"}, {"measurement": "concentration at 8 h", "setting": "[2]; [5]", "result": 0, "unit": "nM"}, {"measurement": "concentration at 8 h", "setting": "[2]; [6]", "result": 0, "unit": "nM"}, {"measurement": "concentration at 8 h", "setting": "[2]; [7]", "result": 0, "unit": "nM"}, {"measurement": "concentration at 12 h", "setting": "[2]; [4]", "result": 0, "unit": "nM"}, {"measurement": "concentration at 12 h", "setting": "[2]; [5]", "result": 0, "unit": "nM"}, {"measurement": "concentration at 12 h", "setting": "[2]; [6]", "result": 0, "unit": "nM"}, {"measurement": "concentration at 12 h", "setting": "[2]; [7]", "result": 0, "unit": "nM"}, {"measurement": "concentration at 24 h", "setting": "[2]; [4]", "result": 0, "unit": "nM"}, {"measurement": "concentration at 24 h", "setting": "[2]; [5]", "result": 0, "unit": "nM"}, {"measurement": "concentration at 24 h", "setting": "[2]; [6]", "result": 0, "unit": "nM"}, {"measurement": "concentration at 24 h", "setting": "[2]; [7]", "result": 0, "unit": "nM"}, {"measurement": "concentration at 0 h", "setting": "[2]; [8]", "result": 0, "unit": "nM"}, {"measurement": "concentration at 0 h", "setting": "[2]; [9]", "result": 0, "unit": "nM"}, {"measurement": "concentration at 0 h", "setting": "[2]; [10]", "result": 0, "unit": "nM"}, {"measurement": "concentration at 0 h", "setting": "[2]; [11]", "result": 0, "unit": "nM"}, {"measurement": "concentration at 0.5 h", "setting": "[2]; [8]", "result": 3.22, "unit": "nM"}, {"measurement": "concentration at 0.5 h", "setting": "[2]; [9]", "result": 0.63, "unit": "nM"}, {"measurement": "concentration at 0.5 h", "setting": "[2]; [10]", "result": 0, "unit": "nM"}, {"measurement": "concentration at 0.5 h", "setting": "[2]; [11]", "result": 0, "unit": "nM"}, {"measurement": "concentration at 1 h", "setting": "[2]; [8]", "result": 4.57, "unit": "nM"}, {"measurement": "concentration at 1 h", "setting": "[2]; [9]", "result": 2.38, "unit": "nM"}, {"measurement": "concentration at 1 h", "setting": "[2]; [10]", "result": 2.42, "unit": "nM"}, {"measurement": "concentration at 1 h", "setting": "[2]; [11]", "result": 0, "unit": "nM"}, {"measurement": "concentration at 2 h", "setting": "[2]; [8]", "result": 5.92, "unit": "nM"}, {"measurement": "concentration at 2 h", "setting": "[2]; [9]", "result": 2.96, "unit": "nM"}, {"measurement": "concentration at 2 h", "setting": "[2]; [10]", "result": 2.91, "unit": "nM"}, {"measurement": "concentration at 2 h", "setting": "[2]; [11]", "result": 0, "unit": "nM"}, {"measurement": "concentration at 4 h", "setting": "[2]; [8]", "result": 5.56, "unit": "nM"}, {"measurement": "concentration at 4 h", "setting": "[2]; [9]", "result": 2.96, "unit": "nM"}, {"measurement": "concentration at 4 h", "setting": "[2]; [10]", "result": 2.5, "unit": "nM"}, {"measurement": "concentration at 4 h", "setting": "[2]; [11]", "result": 0, "unit": "nM"}, {"measurement": "concentration at 8 h", "setting": "[2]; [8]", "result": 2.19, "unit": "nM"}, {"measurement": "concentration at 8 h", "setting": "[2]; [9]", "result": 0.18, "unit": "nM"}, {"measurement": "concentration at 8 h", "setting": "[2]; [10]", "result": 0, "unit": "nM"}, {"measurement": "concentration at 8 h", "setting": "[2]; [11]", "result": 0, "unit": "nM"}, {"measurement": "concentration at 12 h", "setting": "[2]; [8]", "result": 0, "unit": "nM"}, {"measurement": "concentration at 12 h", "setting": "[2]; [9]", "result": 0, "unit": "nM"}, {"measurement": "concentration at 12 h", "setting": "[2]; [10]", "result": 0, "unit": "nM"}, {"measurement": "concentration at 12 h", "setting": "[2]; [11]", "result": 0, "unit": "nM"}, {"measurement": "concentration at 24 h", "setting": "[2]; [8]", "result": 0, "unit": "nM"}, {"measurement": "concentration at 24 h", "setting": "[2]; [9]", "result": 0, "unit": "nM"}, {"measurement": "concentration at 24 h", "setting": "[2]; [10]", "result": 0, "unit": "nM"}, {"measurement": "concentration at 24 h", "setting": "[2]; [11]", "result": 0, "unit": "nM"}, {"measurement": "Geometric mean ratio (fasted/fed, 90% CI) for AUClast", "setting": "[2]; plasma", "result": "1.29 (0.84 to 2.00)"}, {"measurement": "Geometric mean ratio (fasted/fed, 90% CI) for Cmax", "setting": "[2]; plasma", "result": "1.57 (1.21 to 2.0)"}, {"measurement": "Cmax in the plasma, fed compared to fasted subjects (in words)", "setting": "[2]", "result": "much lower"}, {"measurement": "Cmax", "setting": "[3]; Day 1, sepiapterin 20 mg/kg once daily, fed", "result": 1.2, "unit": "ng/mL"}, {"measurement": "AUC0-24", "setting": "[3]; Day 7, sepiapterin 60 mg/kg once daily, fed", "result": 23, "unit": "ng·h/mL"}, {"measurement": "Drug accumulation after 1 and 7 days of treatment (in words)", "setting": "[3]; once-daily sepiapterin for 7 days", "result": "no drug accumulation"}]}]}
